# Source: paper PMC11279404, “Discovery of 1H-benzo[d]imidazole-(halogenated)Benzylidenebenzohydrazide Hybrids as Potential Multi-Kinase Inhibitors” (Pharmaceuticals, 2024)
# Tests used:
# [1] = system: HepG2 (hepatocellular carcinoma cell line); assay: MTT in vitro cytotoxicity, HepG2; format: cell-based, human
# [2] = biological target: EGFR (Homo sapiens, UniProt P00533); assay: In vitro protein kinase inhibition, EGFR
# [3] = system: HCT-116 (human colon cancer cell line); assay: MTT in vitro cytotoxicity, HCT-116; format: cell-based
# [4] = system: Bcl-2; assay: Apoptotic protein level by ELISA, Bcl-2; format: cell-based, human; settings: HepG2 cells
# [5] = MTT in vitro cytotoxicity, normal WI-38; format: cell-based; settings: human, WI-38 normal lung fibroblast cells, normal cell line, mean ± SD of triplicate
# [6] = system: HepG2 cells; assay: Cell cycle analysis (propidium iodide flow cytometry); format: cell-based, human
# Text: Following the treatment, the cells were stained with propidium iodide and analyzed using flow cytometry to determine the cell cycle phase distribution. […] The quantitative data further substantiated this observation. […] It led to a marked accumulation of cells in the G1 phase, accompanied by a concomitant reduction in the proportion of cells in the S and G2/M phases. The cell cycle arrest effect observed with compound 6i may be a key mechanistic aspect contributing to its anticancer potential. The observed cell cycle arrest at the G1 phase is a common mechanism of action for many anti-cancer agents, as it can prevent cell division and proliferation, ultimately leading to cell cycle arrest and potentially inducing apoptosis or other forms of cell death.
# The cell cycle distribution index (CDI) is a metric that quantifies the rate of cell proliferation, calculated as CDI = (G2/M + S)/[…], where the values represent the percentages of cells in each phase. In this study, the CDI values for the control and compound 6i-treated HepG2 cells were 0.91 and 0.39, respectively. […] Compound 6i was further evaluated for apoptosis analysis in HepG2 cell lines.
# [7] = biological target: HDAC1 (Homo sapiens, UniProt Q13547); assay: In vitro enzyme inhibition, HDAC1; format: biochemical; settings: mean ± SD of triplicate; read-out: In Vitro Protein Kinase Inhibition IC50 HDAC1
# [8] = biological target: Her2 (Homo sapiens, UniProt P04626); assay: In vitro protein kinase inhibition, Her2
# [9] = biological target: CDK2 (Homo sapiens, UniProt P24941); assay: In vitro protein kinase inhibition, CDK2
# [10] = biological target: mTOR (Homo sapiens, UniProt P42345); assay: In vitro enzyme inhibition, mTOR
# [11] = system: cancer cell lines (HCT-116, HepG2, MCF-7); assay: MTT in vitro cytotoxicity, summary across the cancer cell line panel; format: cell-based; settings: Homo sapiens; summary over HCT-116, HepG2, MCF-7; read-out: IC50 values across the tested cancer cell lines
# Procedure: The cytotoxic activities of compounds 6a-l were assessed using a standard MTT method, which was performed across three different cancer cell line models, namely human colon cancer (HCT-116), hepatocellular carcinoma (HepG2), mammary gland cancer (MCF-7), and normal (WI-38) cell lines. […] […]. Substitution at the 4-position, as in the case of compounds 6d, 6g, and 6j, also seems beneficial, with fluoro (6j) showing the best results. […]. Overall, the cytotoxicity data provide valuable insights into the structure–activity relationships of the synthesized compounds and can guide further optimization efforts to develop potential anticancer agents with improved potency and selectivity.
# . The SI values represent the ratio of the IC50 values for the normal WI-38 cell line compared with the respective cancer cell lines, with higher SI values indicating greater selectivity for the cancer cells over normal cells. […]. The cytotoxic potential of compounds 6a-l was evaluated against a panel of cancer cell lines, including HCT-116, HepG2, and MCF-7, as well as a normal cell line, WI-38, using the reported methodology. The cell lines utilized in this study were obtained from the American Type Culture Collection (ATCC) through the Holding Company for Biological Products and Vaccines (VACSERA) in Cairo, Egypt. These included: 1. A human colon cancer cell line (HCT-116); 2. Hepatocellular carcinoma (HepG2)—a liver cancer cell line; 3. Mammary gland breast cancer (MCF-7); and 4. A human lung fibroblast (WI-38)—a normal cell line.
# [12] = biological target: VEGFR2 (Homo sapiens, UniProt P35968); assay: In vitro protein kinase inhibition, VEGFR2; format: biochemical; settings: mean ± SD of triplicate
# Text: […]. […] […].
# [13] = system: Bax; assay: Apoptotic protein level by ELISA, Bax; format: cell-based, human; settings: HepG2 cells
# Procedure: (§1) To further elucidate the mechanism by which compound 6i induces cell death, the expression levels of key apoptotic proteins were assessed in the HepG2 cell line. […] Specifically, the levels of the pro-apoptotic proteins caspase-3 and Bax were markedly higher in the compound 6i-treated group compared with the control. […] Additional studies are warranted to elucidate the detailed molecular mechanisms underlying the apoptosis-inducing effects of compound 6i and to assess its therapeutic potential in relevant in vivo models.
# (§2) Apoptotic protein levels for compound 6i were determined using an ELISA technique for caspase-3, BAX, and Bcl-2, applying a previously reported method.
# [14] = biological target: T1, AURKC (Homo sapiens, UniProt Q9UQB9); assay: In vitro protein kinase inhibition, AURKC
# T1 sequence (Q9UQB9 1-309): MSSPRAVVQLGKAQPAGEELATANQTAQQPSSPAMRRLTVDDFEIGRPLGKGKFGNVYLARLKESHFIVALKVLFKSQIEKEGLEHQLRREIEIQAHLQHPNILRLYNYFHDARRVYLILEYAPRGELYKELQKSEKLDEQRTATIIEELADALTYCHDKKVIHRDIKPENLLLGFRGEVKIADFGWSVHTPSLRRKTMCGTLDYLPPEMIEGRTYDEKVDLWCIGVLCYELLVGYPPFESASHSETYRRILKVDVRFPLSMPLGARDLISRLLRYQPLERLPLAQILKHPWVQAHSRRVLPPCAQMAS
# [15] = system: MCF-7 (mammary gland breast cancer cell line); assay: MTT in vitro cytotoxicity, MCF-7; format: cell-based, human
# [16] = system: caspase-3; assay: Apoptotic protein level by ELISA, caspase-3; format: cell-based, human; settings: HepG2 cells, ELISA; control 99.904 ± 3.88; mean ± SD of triplicate
# Procedure: as §1, §2
# [17] = system: HepG2 cells; assay: Annexin-V/propidium iodide double staining apoptosis assay; format: cell-based, human; settings: HepG2 cells treated at IC50 concentration for 24 h
# Procedure: To investigate the mode of cell death induced by the synthesized compound 6i, flow cytometry analysis was performed. […] Following the treatment, the cells were double-stained with Annexin V and propidium iodide (PI) to assess the levels of apoptosis and necrosis. The data presented in Table 4 reveal a significant decline in the percentage of viable cells in the compound 6i-treated group (63.93%) compared with the untreated control group (97.58%). […] Additionally, in the late stages of apoptosis, the percentage of apoptotic cells rose from 0.21% in the control group to 9.98% in the compound 6i-treated group. […] The apoptosis levels in the control HepG2 cell lines and the cells treated with compound 6i are shown in the graphical representation provided in Figure 3.
# The apoptosis effect of compound 6i was studied using a previously reported method.
# HDAC1, sequence (Q13547 whole entry): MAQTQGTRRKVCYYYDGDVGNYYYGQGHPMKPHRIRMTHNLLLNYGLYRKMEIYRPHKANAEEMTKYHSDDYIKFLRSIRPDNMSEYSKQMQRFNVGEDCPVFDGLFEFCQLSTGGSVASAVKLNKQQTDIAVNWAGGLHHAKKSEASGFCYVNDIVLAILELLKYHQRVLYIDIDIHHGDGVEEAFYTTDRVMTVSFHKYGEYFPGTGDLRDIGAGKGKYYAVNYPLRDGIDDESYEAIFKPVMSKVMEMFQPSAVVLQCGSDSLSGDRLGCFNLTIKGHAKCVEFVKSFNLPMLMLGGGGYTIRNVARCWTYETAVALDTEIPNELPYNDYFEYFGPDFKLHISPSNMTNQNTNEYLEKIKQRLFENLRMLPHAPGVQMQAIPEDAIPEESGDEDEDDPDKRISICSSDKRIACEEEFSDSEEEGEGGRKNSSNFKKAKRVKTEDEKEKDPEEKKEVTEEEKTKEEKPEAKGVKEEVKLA
# EGFR, sequence (P00533 25-1210): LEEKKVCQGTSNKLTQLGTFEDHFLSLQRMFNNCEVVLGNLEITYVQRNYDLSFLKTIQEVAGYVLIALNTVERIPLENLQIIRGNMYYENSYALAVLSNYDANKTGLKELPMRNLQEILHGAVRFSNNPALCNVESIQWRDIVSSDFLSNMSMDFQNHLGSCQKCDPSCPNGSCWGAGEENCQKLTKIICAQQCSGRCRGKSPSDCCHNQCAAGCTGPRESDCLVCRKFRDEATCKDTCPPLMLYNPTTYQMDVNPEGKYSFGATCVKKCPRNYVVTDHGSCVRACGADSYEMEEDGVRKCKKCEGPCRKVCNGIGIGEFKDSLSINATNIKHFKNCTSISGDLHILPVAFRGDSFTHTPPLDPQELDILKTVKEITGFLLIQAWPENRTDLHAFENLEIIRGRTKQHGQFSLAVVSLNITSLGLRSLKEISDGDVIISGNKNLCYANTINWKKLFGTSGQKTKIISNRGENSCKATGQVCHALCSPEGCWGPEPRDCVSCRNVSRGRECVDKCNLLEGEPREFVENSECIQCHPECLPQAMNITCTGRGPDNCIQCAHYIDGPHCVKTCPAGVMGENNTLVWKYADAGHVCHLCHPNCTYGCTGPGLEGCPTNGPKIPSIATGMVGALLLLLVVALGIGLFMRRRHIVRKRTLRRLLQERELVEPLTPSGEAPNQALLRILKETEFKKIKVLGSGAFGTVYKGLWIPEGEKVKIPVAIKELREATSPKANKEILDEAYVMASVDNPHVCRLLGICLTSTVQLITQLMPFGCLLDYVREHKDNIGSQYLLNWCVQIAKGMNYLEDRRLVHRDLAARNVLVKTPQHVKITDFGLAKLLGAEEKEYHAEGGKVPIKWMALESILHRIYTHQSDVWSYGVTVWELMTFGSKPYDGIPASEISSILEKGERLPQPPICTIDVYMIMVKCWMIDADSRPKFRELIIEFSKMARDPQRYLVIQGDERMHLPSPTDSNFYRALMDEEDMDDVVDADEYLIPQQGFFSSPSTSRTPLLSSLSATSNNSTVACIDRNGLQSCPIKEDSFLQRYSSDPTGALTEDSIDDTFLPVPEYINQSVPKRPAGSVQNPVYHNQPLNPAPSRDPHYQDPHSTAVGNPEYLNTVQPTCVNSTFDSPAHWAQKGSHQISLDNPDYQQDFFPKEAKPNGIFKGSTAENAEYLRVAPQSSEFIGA
# VEGFR2, sequence (P35968 20-1356): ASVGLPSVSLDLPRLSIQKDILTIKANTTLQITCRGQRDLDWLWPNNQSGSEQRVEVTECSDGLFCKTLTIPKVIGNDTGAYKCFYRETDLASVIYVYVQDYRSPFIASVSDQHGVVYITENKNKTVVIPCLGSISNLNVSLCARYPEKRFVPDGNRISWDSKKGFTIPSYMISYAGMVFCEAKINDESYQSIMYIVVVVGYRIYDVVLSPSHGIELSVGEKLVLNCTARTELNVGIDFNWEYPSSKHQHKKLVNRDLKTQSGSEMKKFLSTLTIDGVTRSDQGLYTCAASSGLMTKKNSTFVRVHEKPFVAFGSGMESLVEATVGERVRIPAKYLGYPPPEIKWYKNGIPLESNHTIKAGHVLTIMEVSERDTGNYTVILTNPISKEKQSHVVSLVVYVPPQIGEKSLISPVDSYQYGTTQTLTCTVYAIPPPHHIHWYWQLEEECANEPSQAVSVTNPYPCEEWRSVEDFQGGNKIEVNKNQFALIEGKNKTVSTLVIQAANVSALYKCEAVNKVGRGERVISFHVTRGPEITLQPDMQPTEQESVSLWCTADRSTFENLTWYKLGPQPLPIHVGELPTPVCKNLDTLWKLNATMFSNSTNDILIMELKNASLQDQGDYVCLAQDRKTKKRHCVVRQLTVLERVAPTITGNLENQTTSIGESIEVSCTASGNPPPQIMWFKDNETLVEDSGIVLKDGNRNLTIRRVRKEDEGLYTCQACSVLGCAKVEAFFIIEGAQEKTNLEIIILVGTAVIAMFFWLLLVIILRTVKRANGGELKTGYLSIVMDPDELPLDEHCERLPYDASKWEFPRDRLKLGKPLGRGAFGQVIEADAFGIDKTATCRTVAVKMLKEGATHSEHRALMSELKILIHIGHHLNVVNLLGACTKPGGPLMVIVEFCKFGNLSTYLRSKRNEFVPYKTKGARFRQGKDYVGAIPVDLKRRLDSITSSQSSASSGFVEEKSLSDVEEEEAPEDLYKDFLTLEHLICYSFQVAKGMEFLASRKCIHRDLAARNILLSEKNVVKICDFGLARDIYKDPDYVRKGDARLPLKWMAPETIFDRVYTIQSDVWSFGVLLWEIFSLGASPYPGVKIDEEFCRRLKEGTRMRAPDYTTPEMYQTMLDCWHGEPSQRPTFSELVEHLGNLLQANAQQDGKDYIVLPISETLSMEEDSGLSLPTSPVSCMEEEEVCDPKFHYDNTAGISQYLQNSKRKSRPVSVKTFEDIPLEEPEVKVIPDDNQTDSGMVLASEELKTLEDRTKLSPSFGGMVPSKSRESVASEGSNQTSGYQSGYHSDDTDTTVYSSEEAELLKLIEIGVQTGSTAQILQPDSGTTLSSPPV
# Her2, sequence (P04626 23-1255): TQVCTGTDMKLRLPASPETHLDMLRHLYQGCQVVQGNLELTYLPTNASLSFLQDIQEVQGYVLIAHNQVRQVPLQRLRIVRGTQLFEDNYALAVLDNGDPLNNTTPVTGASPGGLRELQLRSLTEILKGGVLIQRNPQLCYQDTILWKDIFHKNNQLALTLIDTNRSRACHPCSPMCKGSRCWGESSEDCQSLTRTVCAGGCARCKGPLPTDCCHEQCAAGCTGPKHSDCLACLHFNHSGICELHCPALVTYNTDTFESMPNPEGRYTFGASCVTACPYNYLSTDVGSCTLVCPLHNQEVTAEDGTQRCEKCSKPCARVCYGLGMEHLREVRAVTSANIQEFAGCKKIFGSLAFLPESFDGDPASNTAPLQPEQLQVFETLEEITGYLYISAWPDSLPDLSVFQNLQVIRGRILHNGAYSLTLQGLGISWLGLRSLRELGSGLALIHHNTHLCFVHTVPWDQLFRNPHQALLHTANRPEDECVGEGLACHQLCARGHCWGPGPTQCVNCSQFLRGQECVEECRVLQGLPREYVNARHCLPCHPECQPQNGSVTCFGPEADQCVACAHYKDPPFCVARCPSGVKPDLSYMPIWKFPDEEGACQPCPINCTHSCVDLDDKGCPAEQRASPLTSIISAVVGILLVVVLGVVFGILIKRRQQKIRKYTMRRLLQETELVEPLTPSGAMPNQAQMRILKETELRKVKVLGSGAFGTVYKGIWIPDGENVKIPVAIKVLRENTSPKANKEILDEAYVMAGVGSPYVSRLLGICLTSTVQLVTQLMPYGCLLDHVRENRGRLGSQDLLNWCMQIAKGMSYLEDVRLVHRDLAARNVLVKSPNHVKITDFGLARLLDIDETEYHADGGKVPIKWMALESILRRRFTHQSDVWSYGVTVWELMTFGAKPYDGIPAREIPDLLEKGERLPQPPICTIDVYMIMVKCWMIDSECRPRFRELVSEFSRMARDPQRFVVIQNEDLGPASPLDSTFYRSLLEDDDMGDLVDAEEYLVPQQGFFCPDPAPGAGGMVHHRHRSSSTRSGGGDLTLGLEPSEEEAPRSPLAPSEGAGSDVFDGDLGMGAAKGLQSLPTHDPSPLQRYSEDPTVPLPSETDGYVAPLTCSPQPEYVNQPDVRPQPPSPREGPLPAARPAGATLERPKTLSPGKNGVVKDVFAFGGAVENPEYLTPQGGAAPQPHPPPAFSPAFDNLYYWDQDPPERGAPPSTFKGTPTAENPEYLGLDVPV
smiles,measurement,setting,value
"O=C(N/N=C/c1cccc(F)c1)c1ccc(NCc2nc3ccccc3[nH]2)cc1 [6i, (E)-4-(((1H-benzo[d]imidazol-2-yl)methyl)amino)-N′-(3-fluorobenzylidene)benzohydrazide]",IC50,"[1]; Homo sapiens, HepG2, MTT, mean ± SD of triplicate",9390 ± 800 nM
same,SI (Selectivity Index) HepG2,[1]; IC50 of WI-38 / IC50 of HepG2,6.01
same,IC50,[2],30.1 ± 0.03 nM
same,IC50,"[3]; Homo sapiens, HCT-116, MTT, mean ± SD of triplicate",13400 ± 1200 nM
same,SI (Selectivity Index) HCT-116,[3]; IC50 of WI-38 / IC50 of HCT-116,4.20
same,"Bcl-2 level, fold lower compared with the control",[4],7.5 fold
same,Protein Expression Bcl-2,"[4]; ELISA, control 15.668 ± 0.53, mean ± SD of triplicate",2.073 ± 0.07 pg/mL
same,Protein Expression Bcl-2 (Folds),[4]; relative to control (1),0.132 Folds
same,IC50,[5],56500 ± 3000 nM
same,Cell Cycle Distribution Index (CDI),"[6]; CDI = (G2/M + S)/(G0-G1), HepG2, IC50 concentration, 24 h, control 0.91",0.39
same,DNA Content (%) %G2/M,"[6]; HepG2 cells treated at IC50 concentration for 24 h, control 12.84",2.68%
same,DNA Content (%) %S,"[6]; HepG2 cells treated at IC50 concentration for 24 h, control 34.77",25.19%
same,DNA Content (%) %G0-G1,"[6]; HepG2 cells treated at IC50 concentration for 24 h, control 52.39",72.13%
same,IC50,[7],96.6 ± 0.003 nM
same,IC50,[8],28.3 ± 0.001 nM
same,IC50,[9],364 ± 0.011 nM
same,IC50,[10],152 ± 0.005 nM
same,IC50,[11],7820 to 10200 nM
same,IC50,[12],172.2 ± 0.006 nM
same,Protein Expression Bax,"[13]; ELISA, control 71.075 ± 2.762, mean ± SD of triplicate",513.731 ± 19.96 pg/mL
same,Protein Expression Bax (Folds),[13]; relative to control (1),7.22 Folds
same,IC50,[14],74.5 ± 0.003 nM
same,IC50,"[15]; Homo sapiens, MCF7, MTT, mean ± SD of triplicate",11600 ± 900 nM
same,SI (Selectivity Index) MCF-7,[15]; IC50 of WI-38 / IC50 of MCF-7,4.85
same,Protein Expression Caspase-3,[16],388.497 ± 15.09 pg/mL
same,Apoptosis Late,[17]; control 0.21,9.98%
same,Apoptosis Early,[17]; control 0.61,22.07%
same,Necrosis,[17]; control 1.6,4.02%
same,Alive Cell (%),[17]; control 97.58,63.93%
